In patent US10105377B2, “Compounds and nail polish” (Anacor Pharmaceuticals, Inc., priority 2014, dated 2018):

Columns and labels:
[1] = Tavaborole penetration of fingernails with one, two, or four layers of nail polish (vertical diffusion cells); type: in vitro ADME, human; settings: from Tavaborole Topical Solution, 5%; through up to four layers of nail polish
Excerpt: Female human ex vivo, cadaver fingernails from eight donors were cleaned of any underlying tissue, rinsed with water to remove any additional materials from the surface and then characterized for width, length, thickness, and weight. Four different treatment groups were used to evaluate different nail polish application practices. In the first treatment group, one nail from each of seven donors (randomized to treatment group) was painted according to the first nail polish application practice. In the second treatment group, a second nail from each of seven donors (randomized to treatment group) was painted according to the second nail polish application practice. In the third treatment group, a third nail from each of seven donors (randomized to treatment group) was painted according to the third nail polish application practice. In the fourth treatment group, a fourth nail from each of seven donors (randomized to treatment group) was painted according to the fourth nail polish application practice. […]
Vertical diffusion cells were filled with pre-warmed receiving medium of phosphate buffered saline (pH 7.4) and a small stir bar, and were allowed to equilibrate to 32±1.0° C. The cell volumes were determined prior to initiating the study. […] Prior to dosing, each cell was evaluated for leaks. […]

[2] = ex vivo human cadaver fingernails; relative to ciclopirox; cited from earlier work

- penetration through layers of nail polish (in words) [1]: able to penetrate
Structure (SMILES): OB1OCc2cc(F)ccc21 [tavaborole, 5-fluoro-1,3-dihydro-1-hydroxy-2,1-benzoxaborole]
- quantity through the nail compared with ciclopirox [2]: 250 fold
